From patent publication US12687780B2, “Curable water-based composition, active-energy-ray-curable water-based composition, active-energy-ray-curable water-based ink, stored container, two-dimensional or three-dimensional image forming apparatus, two-dimensional or three-dimensional image forming method, cured product, and decorated body” (Ricoh Company, Ltd., priority 2021, dated 2026) come the findings set out here.

The series in a line: Skin sensitivity: stimulation index (SI) value by the LLNA method (OECD test guideline 429). The format is in vivo. The conditions noted are these: stimulation index of the single compound (raw material).
Regarding `C=CC(=O)NCC(=O)OCC` [Example A1-3, N-acryloylglycine ethyl ester], the SI value result is “(see Synthesis example 3) SI = 1.21”.

As to `C=CC(=O)N1CCC(C(=O)OCC)CC1` [Example A2-5, ethyl N-acryloylpiperidine-4-carboxylate], the SI value entry is listed as “(see Synthesis example 10) SI = 1.70”.

On to `C=CC(=O)NCC(=O)OC` [Example A1-2, N-acryloylglycine methyl ester], for which the SI value result was “(see Synthesis example 2) SI = 1.01”.

As to `C=CC(=O)NCCNC(=O)C=C` [Example B1-2], the SI value entry was “SI = 1.23”.

For `C=CC(=O)NC(C)C(=O)OC` (stereo not shown) [Example A1-6, N-acryloyl alaninemethyl ester], the SI value entry is listed as “(see Synthesis example 6) SI = 1.37”.

On to `C=CC(=O)N(C)CC(=O)OC` [Example A2-1, N-acryloyl-N-methyl glycine methyl ester], for which the SI value result is recorded as “(see Synthesis example 7) SI = 1.00”.

For the compound `C=CC(=O)NCNC(=O)C=C` [Example B1-1], the SI value result is reported as “SI = 1.08”.

Consider `C=CC(=O)NCCCC(=O)OC` [Example A1-5, N-acryloyl-4-butyric acid methyl ester], for which the SI value result was “(see Synthesis example 5) SI = 1.45”.

As to `C=CC(=O)NCCN(CCNC(=O)C=C)C(=O)C=C` [Example B1-3], the SI value result is ““FOM-03007” obtained from FUJIFILM Corporation SI = 1.44”.

Turning to `C=CC(=O)NCCN(CCN(CCNC(=O)CC)C(=O)C=C)C(=O)C=C` [Example B1-4], the SI value entry is recorded as ““FOM-03009” obtained from FUJIFILM Corporation SI = 1.52”.
